In ChEMBL document CHEMBL1201862, “PubChem BioAssay data set” (2004):
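Grown in 96-well plates, cells were treated for 48 hours with each compound at five concentrations. Insufficient inhibition: endpoint recorded as highest concentration tested. GI50: concentration for 50% inhibition of growth.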 The source made the active and inactive calls. No stated cut-off is given here; in the data, active = GI50 up to about 1.1 µM and inactive = higher.

Key:
Assay in all cases: NCI anticancer screen, dose series, 48 h
LOX IMVI = test system: LOX IMVI
HL-60 = test system: HL-60
SK-MEL-28 = test system: SK-MEL-28
OVCAR-3 = test system: OVCAR-3
RPMI-8226 = test system: RPMI-8226
OVCAR-5 = test system: OVCAR-5
786-0 = test system: 786-0
HT-29 = test system: HT-29
OVCAR-8 = test system: OVCAR-8
UO-31 = test system: UO-31
U-251 = test system: U-251
COLO 205 = test system: COLO 205
Malme-3M = test system: Malme-3M
MOLT-4 = test system: MOLT-4
EKVX = test system: EKVX
UACC-257 = test system: UACC-257
DU-145 = test system: DU-145
MDA-MB-231 = test system: MDA-MB-231
Hs-578T = test system: Hs-578T
MDA-MB-435 = test system: MDA-MB-435

Row | Structure (SMILES) | GI50 (LOX IMVI) | GI50 (HL-60) | GI50 (SK-MEL-28) | GI50 (OVCAR-3) | GI50 (RPMI-8226) | GI50 (OVCAR-5) | GI50 (786-0) | GI50 (HT-29) | GI50 (OVCAR-8) | GI50 (UO-31) | GI50 (U-251) | GI50 (COLO 205) | GI50 (Malme-3M) | GI50 (MOLT-4) | GI50 (EKVX) | GI50 (UACC-257) | GI50 (DU-145) | GI50 (MDA-MB-231) | GI50 (Hs-578T) | GI50 (MDA-MB-435)
1 | Cc1nc2cc(Nc3ccccc3C(=O)O)ccc2s1 | > 100 µM (inactive) | > 100 µM (inactive) | > 100 µM (inactive) | > 100 µM (inactive) | > 100 µM (inactive) | > 100 µM (inactive) | > 100 µM (inactive) | > 100 µM (inactive) | > 100 µM (inactive) | 34 µM (inactive) | > 100 µM (inactive) | > 100 µM (inactive) | > 100 µM (inactive) | > 100 µM (inactive) |  |  |  |  |  | 
2 | CCOC(=O)C[C@@]12CCCN[C@]1(C)CCc1ccccc12 | > 100 µM (inactive) | > 100 µM (inactive) | > 100 µM (inactive) | > 100 µM (inactive) | > 100 µM (inactive) | > 100 µM (inactive) | > 100 µM (inactive) | > 100 µM (inactive) | > 100 µM (inactive) | > 100 µM (inactive) | > 100 µM (inactive) |  | > 100 µM (inactive) | > 100 µM (inactive) | > 100 µM (inactive) |  |  |  |  | 
3 | O=c1cc(NNc2cccc(F)c2)[nH]c(=O)[nH]1 | 18 µM (inactive) | 19.1 µM (inactive) | > 100 µM (inactive) | 16.5 µM (inactive) | 16.7 µM (inactive) | > 100 µM (inactive) | 16.6 µM (inactive) | 16.3 µM (inactive) |  | 29.4 µM (inactive) | 17.2 µM (inactive) | 34.6 µM (inactive) | 19.4 µM (inactive) | 27.9 µM (inactive) |  | 17.9 µM (inactive) | > 100 µM (inactive) | 16.7 µM (inactive) | 83 µM (inactive) | 
4 | Oc1ccc(O)c(-n2cccn2)c1-n1cccn1 | > 100 µM (inactive) | > 10 µM (inactive) | > 100 µM (inactive) | > 100 µM (inactive) | > 100 µM (inactive) | > 100 µM (inactive) | > 100 µM (inactive) | > 100 µM (inactive) | > 100 µM (inactive) | > 100 µM (inactive) | > 100 µM (inactive) | 30.5 µM (inactive) | > 100 µM (inactive) | > 10 µM (inactive) | > 100 µM (inactive) |  |  |  |  | 
5 | N#Cc1cc(C#N)c(Cl)nc1N | > 10 µM (inactive) | 3.48 µM (inactive) | > 10 µM (inactive) | > 10 µM (inactive) | > 10 µM (inactive) |  | > 10 µM (inactive) | > 10 µM (inactive) | > 10 µM (inactive) | 0.0323 µM (active) | > 10 µM (inactive) | > 10 µM (inactive) | > 10 µM (inactive) | > 10 µM (inactive) | > 10 µM (inactive) |  |  |  | > 10 µM (inactive) | > 10 µM (inactive)
6 | O=C(NCc1ccccc1)c1cc2cc(O)c(O)cc2cn1 | 14.4 µM (inactive) | 13.5 µM (inactive) | 35.7 µM (inactive) | 34.1 µM (inactive) | 24.6 µM (inactive) | 33.5 µM (inactive) | 22.9 µM (inactive) | 26.7 µM (inactive) | 21.2 µM (inactive) | 18.1 µM (inactive) | 17.5 µM (inactive) | 34.8 µM (inactive) | 34.6 µM (inactive) |  | 41.3 µM (inactive) | 26.9 µM (inactive) |  |  |  | 
7 | NC(=S)N/N=C1/CN(c2ccc(Cl)c(Cl)c2)CC(=O)C1c1nc2ccccc2s1 (stereo not given) | 59.6 µM (inactive) | 68.9 µM (inactive) | 92.3 µM (inactive) | 67 µM (inactive) | 79.1 µM (inactive) | > 100 µM (inactive) | > 100 µM (inactive) | 81.5 µM (inactive) | 76.7 µM (inactive) | 38.7 µM (inactive) | 67.1 µM (inactive) | > 100 µM (inactive) | > 100 µM (inactive) |  | > 100 µM (inactive) | 35.2 µM (inactive) |  |  |  | 
8 | CC(C)(C)C(=O)Nc1cccc2oc(-c3ccccc3)cc12 |  | 66.2 µM (inactive) | > 100 µM (inactive) | > 100 µM (inactive) | > 100 µM (inactive) |  | > 100 µM (inactive) | > 100 µM (inactive) | > 100 µM (inactive) | 26.2 µM (inactive) | > 100 µM (inactive) | > 100 µM (inactive) |  | 49.7 µM (inactive) | 65.3 µM (inactive) | > 100 µM (inactive) |  |  |  | 
9 | O=S(=O)(c1ccccc1)N1N=C2c3ccccc3CCC[C@H]2C1c1ccccc1 (stereo not given in full) | > 87.9 µM (inactive) | > 100 µM (inactive) | > 100 µM (inactive) | > 100 µM (inactive) | > 100 µM (inactive) | > 100 µM (inactive) | > 100 µM (inactive) | > 100 µM (inactive) | > 100 µM (inactive) | > 60.8 µM (inactive) | > 100 µM (inactive) | > 100 µM (inactive) | > 100 µM (inactive) | > 87.7 µM (inactive) | > 84.3 µM (inactive) | > 100 µM (inactive) |  |  |  | 
